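Briefly, cells in 96-well plates were exposed to five compound concentrations for 48 h, and endpoints were estimated by linear interpolation. GI50 is the concentration that inhibits growth by half. Definition used: TGI = concentration required for complete inhibition of growth.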
How the values were obtained:
Experiment in all cases: growth of human tumour cells (NCI), 48 h
RXF 393 renal = tested on: RXF 393 renal
HCT-116 colon = tested on: HCT-116 colon
NCI/ADR-RES ovarian = tested on: NCI/ADR-RES ovarian
NCI-H23 lung = tested on: NCI-H23 lung
HL-60(TB) leukemia = tested on: HL-60(TB) leukemia
HT29 colon = tested on: HT29 colon
HOP-62 NSCLC = tested on: HOP-62 NSCLC
COLO 205 colon = tested on: COLO 205 colon
SF-268 CNS = tested on: SF-268 CNS
SK-MEL-28 melanoma = tested on: SK-MEL-28 melanoma

## O=c1[nH]c2nc(NC3CCOCC3)ncc2cc1Oc1ccc(F)cc1F
RXF 393 renal
  GI50: > 25 µM
  TGI: > 25 µM
HCT-116 colon
  GI50: > 25 µM
  TGI: > 25 µM
NCI/ADR-RES ovarian
  GI50: > 25 µM
  TGI: > 25 µM
NCI-H23 lung
  GI50: > 25 µM
  TGI: > 25 µM
HL-60(TB) leukemia
  GI50: > 25 µM
  TGI: > 25 µM
HT29 colon
  GI50: > 25 µM
  TGI: > 25 µM
HOP-62 NSCLC
  GI50: > 25 µM
  TGI: > 25 µM
COLO 205 colon
  GI50: > 25 µM
  TGI: > 25 µM
SF-268 CNS
  GI50: > 25 µM
  TGI: > 25 µM
SK-MEL-28 melanoma
  GI50: > 25 µM
  TGI: > 25 µM

## S=c1nc(N/N=C/c2ccco2)c2cn[nH]c2[nH]1
RXF 393 renal
  GI50: > 100 µM
  TGI: > 100 µM
HCT-116 colon
  GI50: 25 µM
  TGI: > 100 µM
NCI/ADR-RES ovarian
  GI50: > 100 µM
  TGI: > 100 µM
NCI-H23 lung
  GI50: > 100 µM
  TGI: > 100 µM
HL-60(TB) leukemia
  GI50: 77.1 µM
  TGI: > 100 µM
HOP-62 NSCLC
  GI50: > 100 µM
  TGI: > 100 µM
COLO 205 colon
  GI50: 29.5 µM
  TGI: 90.8 µM
SF-268 CNS
  GI50: 48.4 µM
  TGI: > 100 µM
SK-MEL-28 melanoma
  GI50: > 100 µM
  TGI: > 100 µM

## C#Cc1nc2ccccc2c(=O)[nH]1
RXF 393 renal
  GI50: 0.249 µM
  TGI: 0.871 µM
HCT-116 colon
  GI50: 0.247 µM
  TGI: 0.716 µM
NCI/ADR-RES ovarian
  GI50: 0.927 µM
  TGI: 8.19 µM
NCI-H23 lung
  GI50: 1.69 µM
  TGI: 4.77 µM
HL-60(TB) leukemia
  GI50: 0.26 µM
  TGI: 0.807 µM
HT29 colon
  GI50: 0.428 µM
  TGI: 1.64 µM
HOP-62 NSCLC
  GI50: 1.95 µM
  TGI: 5.64 µM
COLO 205 colon
  GI50: 0.818 µM
  TGI: 2.42 µM
SF-268 CNS
  GI50: 1.54 µM
  TGI: 4.57 µM
SK-MEL-28 melanoma
  GI50: 0.861 µM
  TGI: 3.42 µM

## Cn1cc(-c2ccc3nnc(Sc4ccc5ncccc5c4)n3n2)cn1
RXF 393 renal
  GI50: 26.6 µM
  TGI: > 100 µM
HCT-116 colon
  GI50: 53 µM
  TGI: > 100 µM
NCI/ADR-RES ovarian
  GI50: > 100 µM
  TGI: > 100 µM
NCI-H23 lung
  GI50: 56 µM
  TGI: > 100 µM
HL-60(TB) leukemia
  GI50: > 100 µM
  TGI: > 100 µM
HT29 colon
  GI50: > 100 µM
  TGI: > 100 µM
HOP-62 NSCLC
  GI50: 30.9 µM
  TGI: > 100 µM
COLO 205 colon
  GI50: 30.4 µM
  TGI: > 100 µM
SF-268 CNS
  GI50: 60.2 µM
  TGI: > 100 µM
SK-MEL-28 melanoma
  GI50: > 100 µM
  TGI: > 100 µM

## C=C1CCC2(C#N)[C@H]3[C@H](CC[C@@H]2C)[C@@H](C)C[C@@H](CC(C)(C)NC(=O)CN2CCC2=O)[C@H]13 (some centres undefined)
RXF 393 renal
  GI50: 11.5 µM
  TGI: 28 µM
HCT-116 colon
  GI50: 3.43 µM
  TGI: 16.2 µM
NCI/ADR-RES ovarian
  GI50: 11.3 µM
  TGI: 38.4 µM
NCI-H23 lung
  GI50: 10.4 µM
  TGI: 36.7 µM
HL-60(TB) leukemia
  GI50: 5.05 µM
  TGI: 37 µM
HT29 colon
  GI50: 10.5 µM
  TGI: 24.8 µM
HOP-62 NSCLC
  GI50: 12.3 µM
  TGI: 29 µM
COLO 205 colon
  GI50: 2.56 µM
  TGI: 13 µM
SF-268 CNS
  GI50: 14.2 µM
  TGI: 42.3 µM
SK-MEL-28 melanoma
  GI50: 10.2 µM
  TGI: 23 µM

## O=C(Nn1c(-c2ccccc2)nc2ccccc2c1=O)c1ccccc1O
RXF 393 renal
  TGI: > 100 µM
HCT-116 colon
  TGI: > 100 µM
NCI/ADR-RES ovarian
  TGI: > 100 µM
NCI-H23 lung
  TGI: > 100 µM
HL-60(TB) leukemia
  TGI: > 100 µM
HT29 colon
  TGI: > 100 µM
HOP-62 NSCLC
  TGI: > 100 µM
COLO 205 colon
  TGI: > 100 µM
SF-268 CNS
  TGI: > 100 µM
SK-MEL-28 melanoma
  TGI: > 100 µM

## O=C1CCC(N2C(=O)c3ccccc3C2=O)C(=O)N1 (centres undefined)
RXF 393 renal
  TGI: > 100 µM
HCT-116 colon
  TGI: > 100 µM
NCI/ADR-RES ovarian
  TGI: > 100 µM
NCI-H23 lung
  TGI: > 100 µM
HL-60(TB) leukemia
  GI50: > 100 µM
  TGI: > 100 µM
HT29 colon
  GI50: > 100 µM
  TGI: > 100 µM
HOP-62 NSCLC
  TGI: > 100 µM
COLO 205 colon
  TGI: > 100 µM
SF-268 CNS
  TGI: > 100 µM
SK-MEL-28 melanoma
  GI50: > 100 µM
  TGI: > 100 µM

## CN(C)c1nc2ccccc2c2c1c1c(n2Cc2ccccc2)-c2ccccc2C1=O
RXF 393 renal
  GI50: > 100 µM
  TGI: > 100 µM
HCT-116 colon
  GI50: 8.79 µM
  TGI: > 100 µM
NCI/ADR-RES ovarian
  GI50: > 100 µM
  TGI: > 100 µM
NCI-H23 lung
  GI50: > 100 µM
  TGI: > 100 µM
HL-60(TB) leukemia
  GI50: 91.6 µM
  TGI: > 100 µM
HT29 colon
  GI50: 12.2 µM
  TGI: > 100 µM
HOP-62 NSCLC
  GI50: > 100 µM
  TGI: > 100 µM
COLO 205 colon
  GI50: > 100 µM
  TGI: > 100 µM
SF-268 CNS
  GI50: > 100 µM
  TGI: > 100 µM
SK-MEL-28 melanoma
  GI50: > 100 µM
  TGI: > 100 µM

## CC1=Nc2ccccc2/C1=C\c1c(C)[nH]c2ccccc12
RXF 393 renal
  TGI: 33.2 µM
HCT-116 colon
  TGI: 24.2 µM
NCI/ADR-RES ovarian
  TGI: 38.3 µM
NCI-H23 lung
  TGI: 38.6 µM
HL-60(TB) leukemia
  TGI: 50.2 µM
HT29 colon
  TGI: 25.4 µM
HOP-62 NSCLC
  TGI: 69.7 µM
COLO 205 colon
  TGI: 53.2 µM
SF-268 CNS
  TGI: 28.6 µM
SK-MEL-28 melanoma
  TGI: 37.9 µM

## CC1=Cc2ccc(C)cc2C(=O)C1=O
RXF 393 renal
  TGI: 3.27 µM
HCT-116 colon
  TGI: 10.8 µM
NCI/ADR-RES ovarian
  TGI: 46.8 µM
NCI-H23 lung
  TGI: 45.3 µM
HL-60(TB) leukemia
  TGI: 4.13 µM
HT29 colon
  TGI: 49.3 µM
HOP-62 NSCLC
  TGI: 57 µM
COLO 205 colon
  TGI: 16.3 µM
SF-268 CNS
  TGI: 27.5 µM
SK-MEL-28 melanoma
  TGI: 52.9 µM

## COc1cc2c(cc1OC)C(=O)/C(=C/c1cc(-c3ccc4c(c3)OCO4)n[nH]1)C2
RXF 393 renal
  GI50: 1.54 µM
  TGI: 3.19 µM
HCT-116 colon
  GI50: 1.03 µM
  TGI: 2.55 µM
NCI/ADR-RES ovarian
  GI50: 2.25 µM
  TGI: 6.87 µM
NCI-H23 lung
  GI50: 1.87 µM
  TGI: 3.91 µM
HL-60(TB) leukemia
  GI50: 2.07 µM
  TGI: 5.59 µM
HT29 colon
  GI50: 1.45 µM
  TGI: 3.09 µM
HOP-62 NSCLC
  GI50: 1.53 µM
  TGI: 2.96 µM
COLO 205 colon
  GI50: 1.7 µM
  TGI: 3.11 µM
SF-268 CNS
  GI50: 1.63 µM
  TGI: 3.37 µM
SK-MEL-28 melanoma
  GI50: 1.89 µM
  TGI: 3.4 µM

## C=C1C(=O)OC2CC(C)C3CC(O)OC(OCC)C3(C)CC12 (centres undefined)
RXF 393 renal
  TGI: 28.3 µM
HCT-116 colon
  TGI: 26 µM
NCI/ADR-RES ovarian
  TGI: 39.2 µM
NCI-H23 lung
  TGI: 30.9 µM
HL-60(TB) leukemia
  TGI: > 30 µM
HT29 colon
  TGI: 38.5 µM
HOP-62 NSCLC
  TGI: 47.6 µM
COLO 205 colon
  TGI: 33.5 µM
SF-268 CNS
  TGI: 34 µM
SK-MEL-28 melanoma
  TGI: 27.5 µM

## COc1ncnc(S(=O)(=O)c2ccc(N=C3C(=O)N(CN4CCN(c5cc6c(cc5F)c(=O)c(C(=O)O)cn6C5CC5)CC4)c4ccc(Cl)cc43)cc2)c1OC
RXF 393 renal
  GI50: > 50 µM
  TGI: > 50 µM
HCT-116 colon
  GI50: 26.4 µM
  TGI: > 50 µM
NCI/ADR-RES ovarian
  GI50: > 50 µM
  TGI: > 50 µM
NCI-H23 lung
  GI50: > 50 µM
  TGI: > 50 µM
HL-60(TB) leukemia
  GI50: 26.8 µM
  TGI: > 50 µM
HT29 colon
  GI50: > 50 µM
  TGI: > 50 µM
HOP-62 NSCLC
  GI50: 31.6 µM
  TGI: > 50 µM
COLO 205 colon
  GI50: > 50 µM
  TGI: > 50 µM
SF-268 CNS
  GI50: 49 µM
  TGI: > 50 µM
SK-MEL-28 melanoma
  GI50: > 50 µM
  TGI: > 50 µM

## Cc1nc2c(n1C)C(=O)c1ccccc1C2=O
HCT-116 colon
  GI50: 40 µM
  TGI: > 100 µM
NCI/ADR-RES ovarian
  GI50: 81.7 µM
  TGI: > 100 µM
NCI-H23 lung
  GI50: 50.4 µM
  TGI: > 100 µM
HL-60(TB) leukemia
  GI50: 46.8 µM
  TGI: > 100 µM
HT29 colon
  GI50: 37.2 µM
  TGI: > 100 µM
HOP-62 NSCLC
  GI50: > 100 µM
  TGI: > 100 µM
COLO 205 colon
  GI50: 37.4 µM
  TGI: > 100 µM
SF-268 CNS
  GI50: > 100 µM
  TGI: > 100 µM
SK-MEL-28 melanoma
  GI50: > 100 µM
  TGI: > 100 µM
